What was measured:
[1] = biological target: T1, human V1b receptor (Homo sapiens, UniProt P47901); assay: V1b receptor binding assay ([3H](Arg8)-vasopressin, crude membranes of CHO cells); settings: for IC50: receptor binding test, human V1b, CHO cell membranes; for inhibition at 0.1 µM: 0.1 μmol/L test drug, V1b receptor binding assay, read-out: Rate of inhibition (V1b: % of inhibition)
T1 construct: expressed in transfected cells; host or cells: CHO cells
T1 sequence (P47901 1-424): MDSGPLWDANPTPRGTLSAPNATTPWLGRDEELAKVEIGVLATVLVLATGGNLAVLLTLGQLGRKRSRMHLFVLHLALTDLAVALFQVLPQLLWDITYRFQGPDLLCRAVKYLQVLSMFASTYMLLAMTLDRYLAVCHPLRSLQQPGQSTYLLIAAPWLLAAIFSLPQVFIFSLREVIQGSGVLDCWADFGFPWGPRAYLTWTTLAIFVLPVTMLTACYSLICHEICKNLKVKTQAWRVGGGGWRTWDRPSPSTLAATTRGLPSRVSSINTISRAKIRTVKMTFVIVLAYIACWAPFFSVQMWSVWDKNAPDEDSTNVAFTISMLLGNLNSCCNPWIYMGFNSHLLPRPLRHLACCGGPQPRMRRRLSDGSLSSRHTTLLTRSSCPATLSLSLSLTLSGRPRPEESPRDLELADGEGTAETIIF
Procedure: (§1) A summary of the methods is given below.
(§2) Each obtained homogenate was centrifuged for 20 minutes at 50,000×g and 4° C., the sediment was resuspended in a 50 mmol/L Tris hydrochloric acid buffer solution (pH7.4, containing 10 mmol/L magnesium chloride and 0.1% bovine serum albumin), which served as a crude membrane preparation. This crude membrane preparation was added with [^3H] (Arg^8) vasopressin (final concentration: 0.1 nmol/L to 0.4 nmol/L), and each test drug (final concentration: 0.1 nmol/L to lμmol/L or 0.01 nmol/L to 0.1 μmol/L) to 22° C. for 90 minutes. After the end of the reaction, the reaction solution was filtrated using a GF/C glass fiber filter, which had been presoaked in 0.3% polyethyleneimine for two hours. After the GF/C glass fiber filter was dried sufficiently, scintillator was added, and the radioactivity on the filter was measured using a liquid scintillation counter. Binding of [^3H] (Arg^8)-vasopressin in the presence of (Arg^8)-vasopressin, in the amounts of 0.1 μmol/L in the V1b receptor binding assay and 5 μmol/L in the V1a and V2 receptor binding assay, were taken as non-specific binding, and the value obtained by subtracting non-specific binding from the total binding in the absence (Arg^8)-vasopressin served as specific binding.
In addition, regarding the V1b receptor binding assay, the value obtained by, subtracting the amount of binding in the presence of 0.1 μmol/L test drug from the total amount of binding, divided by the amount of specific binding, served as the rate of inhibition (% of inhibition) of the test drug at the concentration tested.

[2] = biological target: T2, human V1a receptor (Homo sapiens, UniProt P37288); assay: V1a receptor binding assay ([3H](Arg8)-vasopressin, crude membranes of 293FT cells); settings: receptor binding test, 293FT cell membranes
T2 construct: expressed in transfected cells; host or cells: 293FT cells
T2 sequence (P37288 whole entry): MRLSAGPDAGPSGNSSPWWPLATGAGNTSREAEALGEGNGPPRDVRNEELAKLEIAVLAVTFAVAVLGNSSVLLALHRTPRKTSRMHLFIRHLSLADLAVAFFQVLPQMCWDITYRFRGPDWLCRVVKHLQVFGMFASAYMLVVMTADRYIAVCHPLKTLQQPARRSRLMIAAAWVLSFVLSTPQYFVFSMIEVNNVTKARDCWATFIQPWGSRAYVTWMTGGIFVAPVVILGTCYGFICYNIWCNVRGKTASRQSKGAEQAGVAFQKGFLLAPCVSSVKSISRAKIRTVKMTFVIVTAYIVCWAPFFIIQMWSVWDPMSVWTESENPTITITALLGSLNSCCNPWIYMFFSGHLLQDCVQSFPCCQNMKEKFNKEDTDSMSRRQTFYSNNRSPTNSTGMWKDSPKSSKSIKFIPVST
Procedure: as §1, §2

[3] = biological target: T3, human V2 receptor (Homo sapiens, UniProt P30518); assay: V2 receptor binding assay ([3H](Arg8)-vasopressin, crude membranes of 293FT cells); settings: receptor binding test, human V2, 293FT cell membranes
T3 construct: expressed in transfected cells; host or cells: 293FT cells
T3 sequence (P30518 whole entry): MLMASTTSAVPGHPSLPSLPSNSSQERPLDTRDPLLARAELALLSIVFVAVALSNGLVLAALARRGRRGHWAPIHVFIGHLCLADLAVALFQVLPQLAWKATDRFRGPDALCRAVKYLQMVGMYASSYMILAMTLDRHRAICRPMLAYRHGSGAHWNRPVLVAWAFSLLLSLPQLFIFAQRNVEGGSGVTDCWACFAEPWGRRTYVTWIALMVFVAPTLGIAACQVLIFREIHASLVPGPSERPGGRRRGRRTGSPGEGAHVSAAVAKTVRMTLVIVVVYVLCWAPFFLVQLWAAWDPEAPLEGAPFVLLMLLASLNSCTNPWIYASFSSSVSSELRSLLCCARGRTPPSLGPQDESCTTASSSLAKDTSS
Procedure: as §1, §2

| IC50 [1] [nM] | IC50 [2] [nM] | IC50 [3] [nM] | inhibition at 0.1 µM [1] [%] | SMILES |
| --- | --- | --- | --- | --- |
| 2.6 | 743 | 4010 |  | COc1ccc(S(=O)(=O)N2C(=O)C(c3ccccc3OC)(N3C[C@H](O)C[C@H]3C(=O)N(C)C)c3cc(Cl)ccc32)c(OC(F)(F)F)c1 (single isomer, unassigned) [Example 2] |
| 16 | 2180 | > 10000 |  | COc1ccc(S(=O)(=O)N2C(=O)C(c3ccccc3OC)(N3CCC[C@H]3C(=O)N(C)C)c3cc(Cl)ccc32)c(OC(F)(F)F)c1 (single isomer, unassigned) [Example 5, 1-(5-chloro-3-(2-methoxyphenyl)-1-{[4-methoxy-2-(trifluoromethoxy)phenyl]sulfonyl}-2-oxo-2,3-dihydro-1H-indol-3-yl)-N,N-dimethyl-L-prolinamide] |
| 5.2 | 953 | > 10000 |  | COc1ccc(S(=O)(=O)N2C(=O)C(c3ccccc3OC)(N3CCCC[C@H]3C(=O)N(C)C)c3cc(Cl)ccc32)c(OC(F)(F)F)c1 (single isomer, unassigned) [Example 31] |
| 31 | > 10000 | > 10000 |  | COc1ccc(S(=O)(=O)N2C(=O)C(c3ccccc3OC)(N3Cc4ccccc4C[C@H]3C(=O)N(C)C)c3cc(Cl)ccc32)c(OC(F)(F)F)c1 (single isomer, unassigned) [Example 38 A] |
| 7.1 | 3760 | > 10000 |  | COc1ccc(S(=O)(=O)N2C(=O)C(c3ccccc3OC)(N3CCOC[C@H]3C(=O)N(C)C)c3cc(Cl)ccc32)c(OC(F)(F)F)c1 (single isomer, unassigned) [Example 41] |
| 15 | 1470 | > 10000 |  | COc1ccc(S(=O)(=O)N2C(=O)C(N[C@@H](C)C(=O)N(C)C)(c3ccccc3OC)c3cc(Cl)ccc32)c(OC(F)(F)F)c1 (single isomer, unassigned) [Example 61] |
| 6.3 | 4050 | > 10000 |  | COc1ccc(S(=O)(=O)N2C(=O)C(c3ccccc3OC)(N(C)[C@@H](C)C(=O)N(C)C)c3cc(Cl)ccc32)c(OC(F)(F)F)c1 (single isomer, unassigned) [Example 71] |
| 18 | 677 | > 10000 |  | COc1ccc(S(=O)(=O)N2C(=O)C(O[C@@H](C)C(=O)N(C)C)(c3ccccc3OC)c3cc(Cl)ccc32)c(OC(F)(F)F)c1 (single isomer, unassigned) [Example 81] |
| 2.3 | 504 | 3370 |  | COc1ccc(S(=O)(=O)N2C(=O)C(c3cc(C)ccc3OC)(N3C[C@H](O)C[C@H]3C(=O)N(C)C)c3cc(Cl)ccc32)c(OC(F)(F)F)c1 (single isomer, unassigned) [Example 103] |
| 2.9 | 653 | > 10000 |  | COc1ccc(S(=O)(=O)N2C(=O)C(c3cc(C)ccc3OC)(N3CCCC[C@H]3C(=O)N(C)C)c3cc(Cl)ccc32)c(OC(F)(F)F)c1 (single isomer, unassigned) [Example 116] |
| 11 | 6790 | > 10000 |  | COc1ccc(S(=O)(=O)N2C(=O)C(c3cc(C)ccc3OC)(N3C[C@H](O)C[C@H]3C(=O)N(C)C)c3cc(Br)cnc32)c(OC(F)(F)F)c1 (single isomer, unassigned) [Example 120] |
| 15 | 8240 | > 10000 |  | COc1ccc(S(=O)(=O)N2C(=O)C(c3cc(C)ccc3OC)(N3C[C@H](O)C[C@H]3C(=O)N(C)C)c3cc(C#N)ccc32)c(OC(F)(F)F)c1 (single isomer, unassigned) [Example 126] |
| 1.1 | 355 | 3190 |  | COc1ccc(S(=O)(=O)N2C(=O)C(c3cc(C)ccc3OC)(N3C[C@H](OCCCN(C)C)C[C@H]3C(=O)N(C)C)c3cc(Cl)ccc32)c(OC(F)(F)F)c1 (single isomer, unassigned) [Example 140] |
| 1.2 | 1110 | 5650 |  | COc1ccc(S(=O)(=O)N2C(=O)C(c3cc(C)ccc3OC)(N3C[C@H](OCC(N)=O)C[C@H]3C(=O)N(C)C)c3cc(Cl)ccc32)c(OC(F)(F)F)c1 (single isomer, unassigned) [Example 147] |
| 0.56 | 65.1 | 4050 |  | COc1ccc(S(=O)(=O)N2C(=O)C(c3cccnc3OC)(N3C[C@H](O)C[C@H]3C(=O)N(C)C)c3cc(Cl)ccc32)c(OC(F)F)c1 (single isomer, unassigned) [Example 170] |
| 1.8 | 293 | 3340 |  | COc1ccc(S(=O)(=O)N2C(=O)C(c3cc(N4CCOCC4)ccc3OC)(N3C[C@H](O)C[C@H]3C(=O)N(C)C)c3cc(Cl)ccc32)c(OC(F)(F)F)c1 (single isomer, unassigned) [Example 191] |
| 4.3 | 792 | > 10000 |  | COc1ccc(S(=O)(=O)N2C(=O)C(c3cc(-c4ccncc4)ccc3OC)(N3C[C@H](O)C[C@H]3C(=O)N(C)C)c3cc(Cl)ccc32)c(OC(F)(F)F)c1 (single isomer, unassigned) [Example 192] |
| 0.56 | 573 | > 10000 |  | COc1ccc(S(=O)(=O)N2C(=O)C(c3cc(CN(C)C)ccc3OC)(N3C[C@H](O)C[C@H]3C(=O)N(C)C)c3cc(Cl)ccc32)c(OC(F)(F)F)c1 (single isomer, unassigned) [Example 195 A] |
| 0.96 | 404 | 3100 |  | COc1ccc(S(=O)(=O)N2C(=O)C(c3cc(CCO)ccc3OC)(N3C[C@H](O)C[C@H]3C(=O)N(C)C)c3cc(Cl)ccc32)c(OC(F)(F)F)c1 (single isomer, unassigned) [Example 217] |
| 0.32 | 101 | 5050 |  | COc1ccc(S(=O)(=O)N2C(=O)C(c3cc(CCN4CCCCC4)ccc3OC)(N3C[C@H](O)C[C@H]3C(=O)N(C)C)c3cc(Cl)ccc32)c(OC(F)(F)F)c1 (single isomer, unassigned) [Example 225] |
|  |  |  | 78 | COc1ccc(S(=O)(=O)N2C(=O)C(c3cc(C)ccc3OC)(N3C[C@H](O)C[C@H]3C(=O)N(CCO)CCO)c3cc(Cl)ccc32)c(OC(F)(F)F)c1 (stereo partly drawn) [Example 161, (4R)-1-(5-chloro-3-(2-methoxy-5-methylphenyl)-1-{[4-methoxy-2-(trifluoromethoxy)phenyl]sulfonyl}-2-oxo-2,3-dihydro-1H-indol-3-yl)-4-hydroxy-N,N-bis(2-hydroxyethyl)-L-prolinamide] |
|  |  |  | 104 | COc1ccc(S(=O)(=O)N2C(=O)C(c3cc(C)cnc3OC)(N3C[C@H](O)C[C@H]3C(=O)N(C)C)c3cc(Cl)ccc32)c(OC)c1OC (stereo partly drawn) [Example 173, (4R)-1-{5-chloro-3-(2-methoxy-5-methylpyridin-3-yl)-2-oxo-1-[(2,3,4-trimethoxyphenyl)sulfonyl]-2,3-dihydro-1H-indol-3-yl}-4-hydroxy-N,N-dimethyl-L-prolinamide] |
|  |  |  | 105 | CNCc1ccc(OC)c(C2(N3C[C@H](O)C[C@H]3C(=O)N(C)C)C(=O)N(S(=O)(=O)c3ccc(OC)cc3OC(F)(F)F)c3ccc(Cl)cc32)c1 (stereo partly drawn) [Example 206, (4R)-1-(5-chloro-3-{2-methoxy-5-[(methylamino)methyl]phenyl}-1-{[4-methoxy-2-(trifluoromethoxy)phenyl]sulfonyl}-2-oxo-2,3-dihydro-1H-indol-3-yl)-4-hydroxy-N,N-dimethyl-L-prolinamide] |
|  |  |  | 102 | COc1ccc(S(=O)(=O)N2C(=O)C(c3cc(CCN(C)C)ccc3OC)(N3C[C@H](O)C[C@H]3C(=O)N(C)C)c3cc(Cl)ccc32)c(OC(F)(F)F)c1 (stereo partly drawn) [Example 221, (4R)-1-(5-chloro-3-{5-[2-(dimethylamino)ethyl]-2-methoxyphenyl}-1-{[4-methoxy-2-(trifluoromethoxy)phenyl]sulfonyl}-2-oxo-2,3-dihydro-1H-indol-3-yl)-4-hydroxy-N,N-dimethyl-L-prolinamide] |

Reference: patent US8030499B2, “1,3-dihydro-2H-indole-2-one compound and pyrrolidine-2-one compound fused with aromatic heterocycle” (Taisho Pharmaceutical Co., Ltd., priority 2005, dated 2011)
